Patent US20200270588A1, “GLUCOSYL TRANSFERASE POLYPEPTIDES AND METHODS OF USE” (Syngenta Participations AG, priority 2017, published 2020)

Key:
Test in all cases: UDP-Glo glucosyl transferase assay, purified enzyme
Format in all cases: biochemical
[1] = system: wheat bx glucosyl transferase (SEQ ID NO 4); conditions: for Activity: herbicide 0.500 mM, limit of detection about 0.001
Protocol: (§1) Glucosyl transferase activity is assayed via measurement of acceptor substrate-dependent production of UDP from ultrapure UDP-glucose using the Promega UDP-Glo™ method and according to the manufacturer's instructions. Assays are run in 96 well microtiter plates.
(§2) Enzyme, typically at a stock concentration of ˜2 mg/ml is diluted to an appropriate concentration in 50 mM K^+ Hepes buffer at pH7.5 containing 0.5 mg/mL bovine serum albumin (BSA) and 5 ul aliquots of this diluted enzyme added to each well of a Perkin Elmer white ½ area 96 well plate. […] Assays are run for an appropriate time (usually 10 to 60 min) so that the amount of UDP formed lies within the most nearly linear part of the UDP standard curve and are stopped with the addition and mixing of 25 ul UDP-Glo™ detection reagent (prepared as described below). Plates are then incubated at room temperature for 60 minutes and then read in a luminescence plate reader (Perkin Elmer Envision 2130 Multilabel Reader). A UDP standard curve is run alongside each set of assays and reagent blank control assays run with DMSO in place of test herbicide. Typically, 300 pmol of UDP corresponds to a Relative Luminescence Unit (RLU) reading of about 1.5E7 and the response curve between 0 and 600 pmol is fitted to a polynomial function (see for example FIG. 2).
(§3) The UDP-Glo™ reagents are made up and used according to the manufacturer's instructions. Thus, Nucleotide Detection Buffer and ATP are combined to make nucleotide detection reagent (NDR) dispensed into aliquots and frozen to be freshly thawed before use.
(§4) Km and kcat values in respect of UDP-glucose are derived by carrying out experiments to measure initial rates over a suitable range of concentrations of UDP glucose out at a fixed near saturating concentration of acceptor substrate. Best fit values of kcat, Km and kcat/Km are obtained by direct fitting of the data to the Michaelis-Menten equation using Graphpad Prism™ software.
(§5) DNA sequences, optimized for E. coli codon usage, corresponding to SEQ IDs 1-15, encoding BX8 and BX9 orthologue polypeptides derived from a range of species (as depicted in FIG. 1) were synthesized by Genewiz (South Plainfield, USA) with 5′ NdeI and 3′ XhoI restriction sites. The various orthologues were synthesized with either a N-terminal 6×His purification tag or C-terminal 6×His purification tag (i.e. tried both ways to achieve best expression of activity) and cloned into the E. coli expression plasmid pET24a (Novagen) via the NdeI and XhoI restriction sites. Expression, purification and assay was as described in Example 1.
(§6) Assays were carried out as described in Example 1. Partly purified C-terminally his tagged w/t Larkspur enzyme (SEQ ID No 10 with a 6 amino acid C-terminal tag) catalyzed glucosyl transfer to herbicide V at a rate estimated to be about 0.0065/s/pmol at 1 mM herbicide V. The similarly-tagged w/t bx-like enzymes from rye (SEQ ID No 11) and from wheat (SEQ ID No 4) were also active but only at levels close to the detection limit at ˜0.0015/s/pmol. Further examples of assay results from further experiments are depicted in Table 14. All of the proteins were C-terminally his tagged versions of the sequences referenced except for the Zea mays bx8 SEQ ID NO: 2 which was N-terminally his tagged.

[2] = system: Avena bx glucosyl transferase (SEQ ID NO 8); conditions: herbicide 0.500 mM; limit of detection about 0.001
Protocol: as §1, §2, §3, §4, §5, §6

[3] = molecular target: T1, SEQ ID NO 19, mutant of Zea mays bx9 glucosyl transferase (Zea mays, UniProt B4G072, A281K/A334K/L194V/M279F/S117V); conditions: herbicide mM: V 0.300, VI 0.250, VII 0.210; IV, VIII, XI, XXI, XX, XVIII, XVI, XV, XIV 0.200; others 1.000
T1 construct: His tag (C); made in house
Protocol: as §1, §2
(§7) The UDP-Glo™ reagents are made up and used according to the manufacturer's instructions. Thus, Nucleotide Detection Buffer and ATP are combined to make nucleotide detection reagent (NDR) dispensed into aliquots and frozen to be freshly thawed before use. […]
(§8) Table 13 summarizes the results obtained from assays, run as described in Example 1, using a variety of alcohol and aminal PSII herbicides as substrates of the Zea mays bx9 w/t (i.e. C-terminally his tagged SEQ ID no 1) and various mutants of the same, selected from SEQ ID NO: 16-30). All of these proteins were C-terminally his-tagged, expressed and purified as described in Example 1. Assays were run and analyzed as described in example 1. It is seen that various of the mutations herein and combinations thereof led to significant improvements (over the w/t bx9 protein) in catalytic activity versus various of the herbicides and that these improvements are often of sufficient magnitude to be useful for conferring improved herbicide tolerance upon crop. This is especially the case given that even the unmutated w/t bx9 enzyme which has only modest glucosyl transferase activity (for example against compounds V and VI) was nevertheless adequately active to confer significant herbicide tolerance in the glass house (as shown in example 9) even without mutational improvement. It is also seen that particular mutations can lead to very much improved activity in respect of some chemistries but not to others but that, overall, there is at least one variant within the scope of the current invention that provides significant and useful improvement in tolerance to each of the chemistries tested.

[4] = molecular target: T2, SEQ ID NO 18, mutant of Zea mays bx9 glucosyl transferase (Zea mays, UniProt B4G072, A281K/A334K/F21Y/M279F/S117V); conditions: herbicide mM: V 0.300, VI 0.250, VII 0.210; IV, VIII, XI, XXI, XX, XVIII, XVI, XV, XIV 0.200; others 1.000
T2 construct: His tag (C); made in house
Protocol: as §1, §2, §7, §8

[5] = molecular target: T3, SEQ ID NO 23, mutant of Zea mays bx9 glucosyl transferase (Zea mays, UniProt B4G072, A334K/F21Y/L194C/M279F/S117V); conditions: lower block, concentration printed only in upper block: V 0.300, VII 0.210; IV, VIII, XI, XXI, XX, XVIII, XVI, XV, XIV 0.200; others 1.000 mM
T3 construct: His tag (C); made in house
Protocol: as §1, §2, §7, §8

T3 sequence (B4G072 whole entry F21Y/S117V/L194C/M279F/A334K): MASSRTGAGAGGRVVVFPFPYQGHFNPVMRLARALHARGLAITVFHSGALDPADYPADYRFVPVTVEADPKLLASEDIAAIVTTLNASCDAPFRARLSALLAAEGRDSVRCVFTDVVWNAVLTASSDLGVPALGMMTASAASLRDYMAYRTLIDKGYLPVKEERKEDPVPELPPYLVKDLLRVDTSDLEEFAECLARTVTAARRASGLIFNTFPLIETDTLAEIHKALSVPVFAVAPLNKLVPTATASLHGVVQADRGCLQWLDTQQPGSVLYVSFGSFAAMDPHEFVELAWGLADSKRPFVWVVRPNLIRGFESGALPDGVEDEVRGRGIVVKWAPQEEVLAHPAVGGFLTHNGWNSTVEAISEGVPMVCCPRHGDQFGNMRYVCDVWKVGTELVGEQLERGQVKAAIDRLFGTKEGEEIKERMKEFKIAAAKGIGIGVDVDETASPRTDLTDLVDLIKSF
T2 sequence (B4G072 whole entry F21Y/S117V/M279F/A281K/A334K): as the sequence (B4G072 whole entry F21Y/S117V/L194C/M279F/A334K) above, with C194L, A281K counted along it
T1 sequence (B4G072 whole entry S117V/L194V/M279F/A281K/A334K): as the sequence (B4G072 whole entry F21Y/S117V/L194C/M279F/A334K) above, with Y21F, C194V, A281K counted along it

SMILES | Activity [1] [pmol/sec/pmol enzyme] | rate of glucosyl transfer ([1]; herbicide V, close to the detection limit) [s⁻¹ pmol⁻¹] | Activity [2] [pmol/sec/pmol enzyme] | Activity [3] [pmol/sec/pmol enzyme] | Activity [4] [pmol/sec/pmol enzyme] | Activity [5] [pmol/sec/pmol enzyme]
CN1CC(O)N(c2cc(C(F)(F)F)ccn2)C1=O (stereo not drawn) [Compound V] | 0.001 | ~0.0015 | 0.002 | 1.651 | 1.582 | 1.246
Cc1cnc(N2C(=O)N(C)CC2O)cc1C(F)(F)F (stereo not drawn) [XVIII] | 0.000 |  | 0.003 | 0.964 | 0.898 | 0.253
CN1CC(O)N(c2cc(C(F)(F)F)c(Cl)cn2)C1=O (stereo not drawn) [XI] | 0.001 |  | 0.002 | 0.898 | 0.710 | 0.227
CON1C(=O)N(c2cc(C(F)(F)F)ccn2)C(O)[C@@H]1C (stereo partly drawn) [Compound VI] | 0.000 |  | 0.002 |  |  | 
